Legend:
TNF-α [1] = settings: cited from earlier work
TNF-α [2] = test: TNF-α secretion by human PBM, ELISA of supernatants; type: cell-based; settings: for effect on BN52207 induced secretion of TNF-α: PBM 18 hours with BN52207 (5 μg/ml), emetine (1 μg/ml), cycloheximide (5 μg/ml)
Method: Also referring to FIG. 2, the AALP analogues, are therein shown to have immunoregulatory properties. The effect of AALP on the secretion of TNF-α, IL-1β, IL-6, and IL-10 cytokines by both resting and LPS and IFN-γ activated human peripheral blood derived monocytes. Human PBM were incubated for 18 hours at 37° C. in the absence or in the presence of different concentrations of AALP analogues. The cell-free supernatants were harvested and clarified by centrifugation and assessed for the presence of TNF-α, IL-1β, and IL-6 by Enzyme Linked Immunosorbant Assay (ELISA). For TNF-α, there was stimulation of secretion by all compounds at concentrations >0.6 μg/ml and up to 10 μg/ml. […] Similar findings were also obtained for IL-1β. There was no significant difference in the levels of stimulated TNF-α and IL-1β among the five AALP compounds. In contrast to TNF-α and IL-1β, there was no significant stimulation of IL-6 above background levels upon stimulation by any of the five AALP analogues. However, there was significant inhibition of IL-6 secretion at 10 μg/ml and the levels were below the spontaneous secretion of IL-6.
As a result of the similarity of results of the five AALP on PBM, BN52207 was selected to conduct the following experiments. However, it is to be understood that any other AALP analogue may be used to obtain a similar result. Now referring to FIG. 3, human PBM were incubated for 18 hours at 37° C. in the presence or absence of different concentration of BN52207. The PBM were left untreated or treated with IFN-γ (500 U/ml) or LPS (1 μg/ml) added at the initiation of the culture. The supernatants were harvested, clarified by centrifugation, and stored at −70° C. The levels of TNF-α with IFN-γ (FIG. 3A), LPS (FIG. 3B), or BN+LPS (FIG. 3C) activated PBM were assessed by ELISA.
BN52207 potentiated the secretion of TNF-α from IFN-γ-activated PBM and LPS-activated PBM. […] Now referring to FIG. 4, to confirm de novo synthesis of TNF-α mRNA PBM were treated with protein synthesis inhibitors. PBM were incubated for 18 hours with BN52207 (5 μg/ml) in the absence or presence of LPS (1 μg/ml), LPS (1 μg/ml) plus pentoxifylline (50 μg/ml), emetine (1 μg/ml), and cycloheximide (5 μg/ml). The cell-free supernatants were collected and clarified by centrifugation and the level of TNF-α in the supernatants was assessed by ELISA.
Now referring to FIGS. 8 A, B, and C, the kinetics of induction/inhibition of cytokine secretion by AALP were examined. […]
Human peripheral blood was obtained from normal volunteers as per HSPC guidelines of UCLA. […] The adherent cells prepared by this procedure were primarily monocytes (>90%) as determined by esterase staining and flow cytometry using markers for monocytes, T cells, B cells, and NK cells. […]

For `CC1C(=O)OC2C(O)C34C5CC(C(C)(C)C)C36C(OC(=O)C6O)OC4(C(=O)O5)C12O` (centres unmarked) [BN52021], the “effect on TNF-α augmented production by PAF in monocytes” value (TNF-α [1]) is listed as “blocks”.
For `C[C@@H]1C[C@@H]([C@H](O)CC2CC(=O)NC(=O)C2)C(=O)[C@@H](C)C1` [CHX, cycloheximide], the “effect on BN52207 induced secretion of TNF-α” value (TNF-α [2]; FIG. 4) was “inhibited”.
For `CC[C@H]1CN2CCc3cc(OC)c(OC)cc3[C@@H]2C[C@@H]1C[C@H]1NCCc2cc(OC)c(OC)cc21` [emetine], the “effect on BN52207 induced secretion of TNF-α” value (TNF-α [2]; FIG. 4) was “inhibited”.
With `CC(=O)CCCCn1c(=O)c2c(ncn2C)n(C)c1=O` [pentoxifylline] the “effect on BN enhanced stimulation of TNF-α secretion by LPS stimulated PBM” value (TNF-α [2]; PBM 18 hours, BN52207 (5 μg/ml) + LPS (1 μg/ml) + pentoxifylline (50 μg/ml), FIG. 4) was “inhibited”.
With “IFN-γ: recombinant interferon-γ, a gift from Genentech” the “TNF-α secretion on stimulation of PBM with IFN-γ alone” value (TNF-α [2]; IFN-γ (500 U/ml), 18 hours, FIG. 3A) was “results in the secretion of TNF-α”.

From patent US20010053772A1, “Aza analogues of alkyl lysophospholipids exert immunomodulatory effects” (priority 2000, published 2001)
